This test has as its system human NK cells from PBMC. The test is described as follows: Fold expansion and overall yield of transduced NK cells in culture. In kind it is cell-based. The following applies: BX795 (1.5 μM) during transduction combined with pre-stimulation with SMI-LCL feeder cells (FIG. 28A, 28B).

Experimental findings from patent US12516292B2, “Methods of producing modified natural killer cells and methods of use” (The United States of America, as represented by the …, priority 2016, dated 2026) are described below.

Consider `O=C(NCCCNc1nc(Nc2cccc(NC(=O)N3CCCC3)c2)ncc1I)c1cccs1` [BX795], for which the “subsequent proliferation of lentiviral transduced ex-vivo expanded human NK cells” value is on record as “increased subsequent proliferation”.
